Assay results published in US9296716B2, “Androgen receptor ligands” (THE PROVOST, FELLOWS, FOUNDATION SCHOLARS, & THE OTHER …, priority 2011, dated 2016).

Assays:
[1] = target: T1, Glucocorticoid Receptor (GR) LBD (Homo sapiens, UniProt P04150); experiment: TR-FRET SRC1-4 coactivator recruitment assay, GR LBD; type: biochemical; settings: Dexamethasone = EC80
T1 construct: purchased Invitrogen PV4683
T1 sequence (P04150 524-758 limits assumed): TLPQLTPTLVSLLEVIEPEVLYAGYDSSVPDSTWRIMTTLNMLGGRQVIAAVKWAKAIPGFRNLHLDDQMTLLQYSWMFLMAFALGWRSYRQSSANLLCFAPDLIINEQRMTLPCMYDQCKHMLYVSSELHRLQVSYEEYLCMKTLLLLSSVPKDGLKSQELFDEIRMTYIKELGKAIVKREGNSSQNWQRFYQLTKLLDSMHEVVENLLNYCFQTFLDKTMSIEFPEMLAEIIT
Experimental: (§1) Compound binding affinities for Progesterone Receptor (PR), Glucocorticoid Receptor (GR), Estrogen Receptor alpha and Estrogen Receptor beta were determined using TR-FRET (Table 2).
Dexamethasone bound receptor recruitment of the fluorescently labelled SCR1-4 coactivator was unimpaired at screening concentrations up to 100 μM for all the diarylhydrazides evaluated (FIG. 5).
(§2) Lanthascreen TR-FRET AR Coactivator Assay kit (Invitrogen, cat no. PV4381) was used to screen for potential coactivator disruptors.
(§3) TR FRET values were calculated at 10 flashes per well, using a delay time of 100 μs and integration time 200 μs as recommended by the Invitrogen assay guidelines. […] A serial dilution of compounds was firstly prepared in 100×DMSO (Sigma-Aldrich) starting from the maximum desired concentration to achieve a 12 point range concentration using 96-well polypropylene plates (Nalgene Nunc, Rochester, N.Y.). Each 100× solution was diluted to 2× concentration with TR-FRET co-regulator buffer A (Invitrogen proprietary buffer), yielding a final concentration of 1% DMSO in each well.
(§4) D11-FxxLF and Tb antibody were premixed in light protecting vials prior to use. A final concentration of DTT 5 mM was used in the assay buffer in order to prevent protein degradation. All plates (agonist and antagonist mode) were incubated between 2 and 4 hours at room temperature protected from light prior to TR-FRET measurement. […] Data was fitted using the sigmoidal dose response (variable slope) available from Graphpad Prism 5. Y=Bottom+(Top-Bottom)/(1+10^((Log IC50−X)*HillSlope))
(§5) The same procedure was used for AR T877A (Invitrogen cat no. PV4667), PR (Invitrogen cat no. PV4666), ER-α (Invitrogen cat no. PV4544), ER-β (Invitrogen cat no. PV4541) and GR (Invitrogen cat no. PV4683). The assay was adapted to exclude possible non-specific aggregation mechanism of inhibition by adding very low concentration of detergent Triton X-100 (0.001%) to the assay buffer following the Shoichet review guidelines [Shoichet BK (2006) Screening in a spirit haunted world. Drug Discov Today 11:607-615].

[2] = target: T2, AR-LBD T877A mutant (Homo sapiens, UniProt P10275, T878A); experiment: TR-FRET coactivator assay, AR T877A mutant; type: biochemical; settings: D11-FxxLF peptide, DHT = EC80
T2 construct: purchased Invitrogen PV4667
T2 sequence (P10275 669-900 T878A): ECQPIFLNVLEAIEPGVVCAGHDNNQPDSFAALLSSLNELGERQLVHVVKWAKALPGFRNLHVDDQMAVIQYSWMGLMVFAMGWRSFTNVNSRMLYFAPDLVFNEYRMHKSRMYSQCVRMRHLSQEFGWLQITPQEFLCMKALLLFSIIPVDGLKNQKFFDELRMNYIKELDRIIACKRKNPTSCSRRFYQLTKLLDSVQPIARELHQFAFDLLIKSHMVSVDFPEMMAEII

[3] = system: 22Rv1 cells; experiment: 22Rv1 cell proliferation assay; type: cell-based
Experimental: Thus, inhibition on cell proliferation by the compounds could not be evaluated (FIG. 14)
We repeated the same experiment in 22Rv1 cell line.
For cell viability (end point) assays LNCaP, PC-3 and PWR-1E cells were seeded at 2.5*10^4/ml density in 200 μl volume of a 96-well plate in triplicate and incubated for 24 hours prior testing. Test compounds were included at different concentrations to achieve a final concentration of 0.5% DMSO in each well. Effect of 0.5% DMSO on cell-viability was also evaluated. Cell viability was assessed after 24 hours of treatment using 10% Alamar Blue reagent (Invitrogen) for each well. Cell viability was monitored by the reduction of resazurin, a blue, cell-permeable and non-toxic compound, to resorufin, a red and highly fluorescent product. Viable cells continuously convert resazurin to resorufin, increasing the overall colour and fluorescence of the media surrounding cells. Fluorescence intensity can be quantitatively determined with a fluorescence microplate reader at excitation/emission 544 nm/590 nm (Spectramax Gemini). […] A control for the vehicle was included to ensure no effect on viability could be detected. […] Supernatants were collected after five days for secreted PSA levels evaluation and cell proliferation was assessed for the same plate using Alamar Blue in order to exclude non-specific effects due to toxicity issues.

[4] = target: T3, Estrogen Receptor alpha (ER-α) LBD (Homo sapiens, UniProt P03372); experiment: TR-FRET PGC1-α coactivator recruitment assay, ERα LBD; type: biochemical; settings: Estradiol = EC80
T3 sequence (P03372 311-547 limits assumed): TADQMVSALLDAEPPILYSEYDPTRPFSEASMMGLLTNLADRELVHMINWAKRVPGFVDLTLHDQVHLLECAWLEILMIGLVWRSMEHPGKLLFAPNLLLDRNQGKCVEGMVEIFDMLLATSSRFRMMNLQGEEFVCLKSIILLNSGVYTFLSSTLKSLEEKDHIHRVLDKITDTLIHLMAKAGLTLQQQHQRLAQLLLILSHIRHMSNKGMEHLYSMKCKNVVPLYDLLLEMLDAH
Experimental: as §1
Selectivity of the diarylhydrazide scaffold for the AR was determined through a TR-FRET assay in ERα (FIGS. 8A & 9A1) and ERR (FIGS. 8B & 9A2). […] The non-LBP nature of this inhibition was confirmed by a FP assay (FIGS. 9C, 9B1 & 9B2).
as §2, §3, §4, §5

In the case of `COc1cc(/C=N/NC(=O)c2cc3c(ccc4ccccc43)o2)cc(OC)c1O` [MDG506], the “effect on SRC1-4 recruitment by GR LBD” value ([1]; 100 μM to 12.5 μM or single point 100 μM) is reported as “do not affect”, the IC50 ([1]; TR-FRET, ± SEM (n = 6), read-out: NR LBDs IC50 (μM) GR) is reported as over 100 µM and the IC50 [2] is reported as 33.2 ± 5.9 µM. The “cell proliferation in absence of androgens” value [3] was “does not induce”, the “effect on ERα recruitment of fluorescent labelled PGC1-α” value ([4]; 100 μM to 45 nM) was “partially inhibit” and the IC50 ([4]; TR-FRET, ± SEM (n = 6), read-out: NR LBDs IC50 (μM) ER-α) was over 100 µM.
